Laboratory results as given in article PMC11206828, “Catalytic Differences between Flavohemoglobins of Giardia intestinalis and E. coli” (Pathogens, 2024).
Entries after “also recorded” stand apart in the source; their conditions may differ. Read-outs that look alike come from different tables or passages of the source.

Columns and labels:
[1] = target: T1, Giardia flavohemoglobin (gFlHb) (Giardia intestinalis, UniProt E2RTZ4); test: biochemical
T1 sequence (E2RTZ4 1-458): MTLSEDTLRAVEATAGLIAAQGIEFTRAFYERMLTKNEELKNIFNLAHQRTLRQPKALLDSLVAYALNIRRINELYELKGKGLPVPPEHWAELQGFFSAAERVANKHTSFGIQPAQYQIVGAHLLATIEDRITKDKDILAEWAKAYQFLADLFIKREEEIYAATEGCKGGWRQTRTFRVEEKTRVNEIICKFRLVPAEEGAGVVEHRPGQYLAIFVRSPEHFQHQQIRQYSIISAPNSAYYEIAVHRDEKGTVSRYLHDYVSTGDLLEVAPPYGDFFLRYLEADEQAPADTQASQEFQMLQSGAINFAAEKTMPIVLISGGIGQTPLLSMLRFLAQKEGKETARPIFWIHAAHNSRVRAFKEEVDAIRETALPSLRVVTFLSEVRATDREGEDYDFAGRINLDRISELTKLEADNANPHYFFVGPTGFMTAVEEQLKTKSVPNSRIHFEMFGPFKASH
Experimental: To determine NOD activity, Michaelis constant, and enzyme inhibition, rate assays were performed on a World Precision Instruments free radical analyzer (WPI, Sarasota, FL, USA) equipped with an NO-sensitive electrode and a temperature probe, connected to an analog digital converter controlled by Labscribe software, version 4 (iWorx, Dover, NH, USA).
Assays were conducted on a 6 mL scale in cropped 50 mL Falcon tubes in a buffer containing 0.1 M Bis-Tris (pH 6.5) and 100 μM NADH. To minimize protein adhesion to the walls of the chamber, 0.25 mg/mL bovine serum albumin (BSA; Fisher Scientific, Ottawa, ON, Canada) was added. […] Reactions were run at 37 °C in a stirred cell block heater with a four-placed machined aluminum block that matched the taper of the Falcon tubes. With this block arrangement up to four assay solutions could be warmed to the desired temperature beforehand. Upon thermal equilibration to 37 °C, the NO donor compound PROLI-NONOate (Cayman Chemical, Ann Arbor, MI, USA) prepared in 10 mM NaOH was added; 2 moles of NO are released per mole of donor. At the peak of NO release, which occurred within several seconds, flavohemoglobin and FAD were added to a final concentration of 2 nM and 10 nM, respectively. NOD activity was measured as the initial rate of NO signal decrease over the first 15 to 30 s of the reaction. […] Rate data were fitted to the Michaelis–Menten equation by nonlinear regression using Graphpad Prism software, version 9.4.1 (Dotmatics, Boston MA, USA).
(§1) The inhibitor was included in the assay solution before the addition of PROLI-NONOate. Inhibitors were also preincubated in the enzyme stock solutions at the same concentration. […] All inhibition experiments were done using the same enzyme preparations. Each assay at a particular concentration of inhibitor was measured in triplicate or more. […] To determine inhibition constants Ki, rate data obtained at different inhibitor concentrations were fit to the equation for non-competitive inhibition nonlinear regression (Equation (1)) using Graphpad Prism software. (1) v=Vmax/(Km,NO+[NO])1+[I]/Ki

[2] = target: T2, E. coli flavohemoglobin (Hmp) (Escherichia coli, UniProt P24232); test: Nitric oxide dioxygenase (NOD) inhibition assay, Hmp; assay type: biochemical; details: for Ki / TN (turnover number from the inhibition fit), Hmp: pH 6.5, 37 °C
T2 sequence (P24232 whole entry): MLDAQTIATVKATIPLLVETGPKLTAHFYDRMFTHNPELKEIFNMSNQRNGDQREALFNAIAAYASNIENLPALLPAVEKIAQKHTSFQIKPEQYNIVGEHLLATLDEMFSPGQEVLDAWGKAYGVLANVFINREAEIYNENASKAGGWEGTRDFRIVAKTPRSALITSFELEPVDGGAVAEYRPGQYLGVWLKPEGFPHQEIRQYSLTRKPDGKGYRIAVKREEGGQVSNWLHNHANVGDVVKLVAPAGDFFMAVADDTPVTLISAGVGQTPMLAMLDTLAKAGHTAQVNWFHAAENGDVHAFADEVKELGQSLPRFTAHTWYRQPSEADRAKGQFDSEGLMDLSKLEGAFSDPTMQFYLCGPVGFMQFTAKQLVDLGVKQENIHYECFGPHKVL
Experimental: as §1

[3] = target: T2, E. coli flavohemoglobin (Hmp); parameters: method as in PMID 10777548; details: 37 °C and pH 7; cited from earlier work
[4] = target: T1, Giardia flavohemoglobin (gFlHb); test: NOD activity and Michaelis constants, gFlHb; assay type: biochemical; details: pH 6.5, 37 °C
ferric gFlHb = ferric gFlHb (Giardia intestinalis, UniProt E2RTZ4); details: read-out: Binding constant KD, ferric gFlHb; optical titration, 0.1 M Bis-Tris pH 6.5, 3.5 μM flavohemoglobin, nitrite 0 to 750 μM
Experimental: (§2) Titrations of ferric gFlHb and Hmp were performed in 0.1 M Bis-Tris buffer (BioShop, Burlington, ON, Canada) pH 6.5 on a Cary 400 Bio UV-visible spectrophotometer (Agilent Technologies, Mississauga, ON, Canada).

ferric Hmp = ferric Hmp (Escherichia coli, UniProt P24232); details: optical titration, 0.1 M Bis-Tris pH 6.5
Sequence of ferric Hmp (P24232 whole entry): as above
Experimental: as §2

[5] = target: T1, Giardia flavohemoglobin (gFlHb); details: cited from earlier work
[6] = pH 6.5, 37 °C, 100 μM NADH, 1 μM NO
[7] = pH 6.5, 37 °C, 100 μM NADH, 1 μM NO, imidazole and nitrite: Ki of the inhibitor-sensitive phase of a biphasic fit, read-out: Nitric oxide dioxygenase inhibition constant Ki, gFlHb

Cn1ccnc1 [1-methylimidazole]
Ki [1]: 1200 ± 300 µM | Ki ([1]; Inhibition constant, gFlHb (bound), NOD inhibition, pH 6.5, 37 °C): > 1000 µM | TN (turnover number from the inhibition fit), gFlHb [1, 6]: 25 ± 1 s⁻¹ | Ki ([2]; Inhibition constant, Hmp (bound), NOD inhibition): > 1000 µM | Ki ([2]; Nitric oxide dioxygenase inhibition constant Ki, Hmp, 100 μM NADH, 1 μM NO, imidazole: Ki of the inhibitor-sensitive phase of a biphasic fit): 1400 ± 250 µM | TN (turnover number from the inhibition fit), Hmp ([2]; 100 μM NADH, 1 μM NO): 38 ± 2 s⁻¹

c1c[nH]cn1 [Imidazole, imidazole]
TN (turnover number from the inhibition fit), gFlHb [1, 6]: 22 ± 1 s⁻¹ | Ki [1, 7]: 20 ± 6 µM | TN (turnover number from the inhibition fit), Hmp ([2]; 100 μM NADH, 1 μM NO): 33 ± 1 s⁻¹ | Ki ([2]; read-out: Nitric oxide dioxygenase inhibition constant Ki, Hmp, 100 μM NADH, 1 μM NO, imidazole: Ki of the inhibitor-sensitive phase of a biphasic fit): 69 ± 10 µM

NC(=O)C1=CN([C@@H]2O[C@H](COP(=O)(O)OP(=O)(O)OC[C@H]3O[C@@H](n4cnc5c(N)ncnc54)[C@H](O)[C@@H]3O)[C@@H](O)[C@H]2O)C=CC1 [NADH, nicotinamide adenine dinucleotide]
Michaelis constants of Hmp (KmNO, KmNADH, KmO2) [3]: 4.8 µM | Michaelis constant KmNADH, gFlHb ([4]; NO held at 2 μM, NADH up to 200 μM): 22 ± 4 µM

O=NO [Nitrite, nitrite]
Kd (ferric gFlHb): 180 ± 20 µM | Optical differences of Hmp in the presence of nitrite (KD) (ferric Hmp): too small to permit any such calculation | TN (turnover number from the inhibition fit), gFlHb [1, 6]: 23 ± 1 s⁻¹ | Ki [1, 7]: 32 ± 12 µM | Effect on NOD activity of Hmp ([2]; concentrations up to 2 mM): not significantly affected; also recorded: no significant effect

O=O [oxygen]
Michaelis constants of Hmp (KmNO, KmNADH, KmO2) [3]: approximately 100 μM | Michaelis constant of gFlHb for oxygen [5]: 22 ± 7 µM

nitric oxide [NO]
Michaelis constants of Hmp (KmNO, KmNADH, KmO2) [3]: 0.28 µM | Michaelis constant KmNO, gFlHb ([4]; NADH held at 100 μM, NO up to 3 μM): 0.65 ± 0.09 µM
